The values below come from patent publication US12673975B2, “Cyclic peptide, cell scaffold material, cell separating material, and medium” (FUJIFILM Corporation, priority 2019, dated 2026).

For one data set, the target named is human integrin αvβ5 (Homo sapiens, UniProt P06756+P18084). Nature of the data set: Evaluation of integrin binding property (surface plasmon resonance, Biacore 3000, immobilized cyclic peptide). The note with it: SPR, 25° C., HEPES buffer with 5 mM magnesium chloride, integrin 30-1,000 nM; read-out: Performance evaluation: Binding activity (dissociation constant between the cyclic peptide and human integrin αvβ5). The essentials: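 Human αvβ5 (30-1,000 nM) flowed for 10 min at 25 °C over immobilized cyclic peptide in 20 mM HEPES, 150 mM NaCl, 5 mM MgCl2, pH 7.4, followed by 30 min running buffer and 0.5 M EDTA regeneration. Dissociation constant from peptide minus unimmobilized channel, scored into standard grades.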
(In SPR one partner is held on a chip, and binding of the other changes the refractive index at the surface.)

A short description of data set [1]: Evaluation of molecule stability (alkali treatment, residual rate by LC/MS). The data set is classed as physicochemical. The note with it: 500 μM peptide aqueous solution plus equivalent of 1 M sodium hydroxide, 15° C., 3 hours, LC/MS peak area. An outline of the steps:
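Stability read as percent of summed LC/MS peak area remaining versus untreated peptide (C18, 45 °C, 10 mM ammonium formate pH 3, ESI positive/negative). Treatment: 500 μM peptide in water plus an equivalent of 1 M NaOH, 15 °C for 3 hours.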

Starred links: 1 amine or outer side, 2 acyl side, 3 side chain; linkers in the order of their positions; H or OH if unused. Positions of bridges follow the written chain, without caps; N, C: chain ends. Non-standard residues stand in square brackets, D forms with d. Residues, ends and D or L forms follow the SMILES beside them. hCys = N[C@@H](CCS)C(=O)O; Dab = NCC[C@H](N)C(=O)O; Dap = NC[C@H](N)C(=O)O; X1 = O=C(C[*:2])[*:1]; X2 = O=C(C[*:1])[*:2]

Chain of human integrin αvβ5 (P06756 31-1048): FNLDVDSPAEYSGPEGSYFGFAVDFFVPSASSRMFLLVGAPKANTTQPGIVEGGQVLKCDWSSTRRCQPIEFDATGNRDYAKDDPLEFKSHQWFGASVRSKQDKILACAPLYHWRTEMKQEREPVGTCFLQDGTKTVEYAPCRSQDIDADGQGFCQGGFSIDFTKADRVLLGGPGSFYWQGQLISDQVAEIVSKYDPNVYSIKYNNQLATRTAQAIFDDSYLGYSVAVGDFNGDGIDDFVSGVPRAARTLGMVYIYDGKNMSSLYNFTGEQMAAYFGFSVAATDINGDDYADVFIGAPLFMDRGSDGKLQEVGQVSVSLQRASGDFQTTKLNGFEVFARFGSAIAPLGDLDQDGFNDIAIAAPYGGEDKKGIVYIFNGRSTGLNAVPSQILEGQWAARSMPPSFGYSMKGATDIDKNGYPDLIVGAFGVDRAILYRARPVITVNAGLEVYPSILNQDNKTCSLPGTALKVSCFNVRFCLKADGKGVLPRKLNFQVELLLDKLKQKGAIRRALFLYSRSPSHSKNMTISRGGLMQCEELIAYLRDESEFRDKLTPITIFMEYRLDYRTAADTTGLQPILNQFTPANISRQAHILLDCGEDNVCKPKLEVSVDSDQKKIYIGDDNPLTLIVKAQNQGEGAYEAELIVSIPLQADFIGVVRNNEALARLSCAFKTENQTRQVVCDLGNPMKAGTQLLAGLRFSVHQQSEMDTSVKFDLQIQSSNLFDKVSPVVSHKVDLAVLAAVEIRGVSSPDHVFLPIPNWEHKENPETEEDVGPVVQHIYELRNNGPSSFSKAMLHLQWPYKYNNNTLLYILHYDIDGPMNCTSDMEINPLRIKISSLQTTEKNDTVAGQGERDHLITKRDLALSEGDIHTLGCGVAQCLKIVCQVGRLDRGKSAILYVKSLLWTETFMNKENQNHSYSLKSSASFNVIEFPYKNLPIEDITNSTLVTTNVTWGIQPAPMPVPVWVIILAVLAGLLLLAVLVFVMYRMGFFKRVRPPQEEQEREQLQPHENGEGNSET
Chain of human integrin αvβ5 (P18084 24-799): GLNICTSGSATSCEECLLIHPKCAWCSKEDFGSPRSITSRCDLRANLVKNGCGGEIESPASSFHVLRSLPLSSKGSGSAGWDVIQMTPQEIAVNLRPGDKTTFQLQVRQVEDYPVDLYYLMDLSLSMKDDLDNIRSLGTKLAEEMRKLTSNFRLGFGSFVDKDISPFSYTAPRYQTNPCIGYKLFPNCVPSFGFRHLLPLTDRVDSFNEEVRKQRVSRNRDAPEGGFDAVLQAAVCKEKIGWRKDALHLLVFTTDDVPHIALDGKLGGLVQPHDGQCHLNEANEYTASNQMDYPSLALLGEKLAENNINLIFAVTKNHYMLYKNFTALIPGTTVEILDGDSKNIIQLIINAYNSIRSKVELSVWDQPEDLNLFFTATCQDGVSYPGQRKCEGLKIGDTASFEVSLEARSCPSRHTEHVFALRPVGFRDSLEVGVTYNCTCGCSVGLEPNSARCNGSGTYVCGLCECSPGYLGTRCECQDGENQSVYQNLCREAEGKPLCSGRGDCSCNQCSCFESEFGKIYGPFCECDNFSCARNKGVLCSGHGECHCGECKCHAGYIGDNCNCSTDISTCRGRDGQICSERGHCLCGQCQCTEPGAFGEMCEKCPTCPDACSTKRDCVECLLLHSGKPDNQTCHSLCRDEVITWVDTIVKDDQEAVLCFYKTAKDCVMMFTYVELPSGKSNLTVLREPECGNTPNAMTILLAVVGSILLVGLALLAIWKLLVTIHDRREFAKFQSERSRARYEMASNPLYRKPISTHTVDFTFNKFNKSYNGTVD

For `C[C@H](NC(=O)[C@H](CCCCN)NC(=O)[C@H](CCCCN)NC(=O)[C@@H](N)CCCCN)C(=O)N[C@H]1CCSCC(=O)NCC[C@@H](C(=O)N[C@@H](CCC(=O)O)C(=O)O)NC(=O)[C@H](CCCNC(=N)N)NC(=O)[C@H](Cc2ccc(O)cc2)NC(=O)[C@H](CC(N)=O)NC(=O)[C@H](CC(=O)O)NC(=O)CNC(=O)[C@H](CCCNC(=N)N)NC(=O)[C@@H]2CCCN2C(=O)[C@H](CCC(=O)O)NC1=O` [Cyclic peptide 43, KKKA-(Hcy)-EPRGDNYR(Dab(acetyl))E] (H-KKKA[hCys]EPRGDNYR[Dab]E-OH; linker 5-14 via X2), at human integrin αvβ5, the Kd fell in the range of 50 to 100 nM. In addition, the “Performance evaluation: Stability (residual rate of cyclic peptide after alkali treatment)” value in data set [1] is “A (The residual rate of the cyclic peptide is 70% or more.)”.
Consider `N=C(N)NCCC[C@@H]1NC(=O)[C@H](Cc2ccc(O)cc2)NC(=O)[C@H](CC(N)=O)NC(=O)[C@H](CC(=O)O)NC(=O)CNC(=O)[C@H](CCCNC(=N)N)NC(=O)[C@@H]2CCCN2C(=O)[C@H](CCC(=O)O)NC(=O)[C@@H](NC(=O)[C@H](CCCCN)NC(=O)[C@H](CCCCN)NC(=O)[C@@H](N)CCCCN)CCSCC(=O)NCC[C@@H](C(=O)O)NC1=O` [Cyclic peptide 44, KKK-(Hcy)-EPRGDNYR(Dab(acetyl))] (H-KKK[hCys]EPRGDNYR[Dab]-OH; linker 4-13 via X2), for which the Kd on human integrin αvβ5 is 50 to 100 nM. The “Performance evaluation: Stability (residual rate of cyclic peptide after alkali treatment)” value in data set [1] was “A (The residual rate of the cyclic peptide is 70% or more.)”.
Regarding `C[C@H](NC(=O)[C@H](CCCCN)NC(=O)[C@H](CCCCN)NC(=O)[C@@H](N)CCCCN)C(=O)N[C@H]1CCSCC(=O)NCC[C@@H](C(=O)O)NC(=O)[C@H](CCCNC(=N)N)NC(=O)[C@H](Cc2ccc(O)cc2)NC(=O)[C@H](CC(N)=O)NC(=O)[C@H](CC(=O)O)NC(=O)CNC(=O)[C@H](CCCNC(=N)N)NC(=O)[C@@H]2CCCN2C(=O)[C@H](CCC(=O)O)NC1=O` [Cyclic peptide 45, KKKA-(Hcy)-EPRGDNYR(Dab(acetyl))] (H-KKKA[hCys]EPRGDNYR[Dab]-OH; linker 5-14 via X2), the Kd at human integrin αvβ5 was 50 to 100 nM. Moreover, the “Performance evaluation: Stability (residual rate of cyclic peptide after alkali treatment)” value in data set [1] was “A (The residual rate of the cyclic peptide is 70% or more.)”.
Take `N=C(N)NCCC[C@@H]1NC(=O)[C@H](Cc2ccc(O)cc2)NC(=O)[C@H](CC(N)=O)NC(=O)[C@H](CC(=O)O)NC(=O)CNC(=O)[C@H](CCCNC(=N)N)NC(=O)[C@@H]2CCCN2C(=O)[C@H](CCC(=O)O)NC(=O)[C@@H](NC(=O)[C@H](CCCCN)NC(=O)[C@H](CCCCN)NC(=O)[C@@H](N)CCCCN)CNC(=O)CSCC[C@@H](C(=O)O)NC1=O` [Cyclic peptide 46, KKK(Dap(acetyl))EPRGDNYR-(Hcy)] (H-KKK[Dap]EPRGDNYR[hCys]-OH; linker 4-13 via X1): at human integrin αvβ5, the Kd lay within 50 to 100 nM. Moreover, in data set [1], the “Performance evaluation: Stability (residual rate of cyclic peptide after alkali treatment)” value is “B (The residual rate of the cyclic peptide is 50% or more and less than 70%.)”.
As to `C[C@H](NC(=O)[C@H](CCCCN)NC(=O)[C@H](CCCCN)NC(=O)[C@@H](N)CCCCN)C(=O)N[C@H]1CNC(=O)CSCC[C@@H](C(=O)O)NC(=O)[C@H](CCCNC(=N)N)NC(=O)[C@H](Cc2ccc(O)cc2)NC(=O)[C@H](CC(N)=O)NC(=O)[C@H](CC(=O)O)NC(=O)CNC(=O)[C@H](CCCNC(=N)N)NC(=O)[C@@H]2CCCN2C(=O)[C@H](CCC(=O)O)NC1=O` [Cyclic peptide 47, KKKA(Dap(acetyl))EPRGDNYR-(Hcy)] (H-KKKA[Dap]EPRGDNYR[hCys]-OH; linker 5-14 via X1), the Kd on human integrin αvβ5 was in the range of 50 to 100 nM. Further, the “Performance evaluation: Stability (residual rate of cyclic peptide after alkali treatment)” value in data set [1] is “B (The residual rate of the cyclic peptide is 50% or more and less than 70%.)”.
